Measurements: patent US10485800B2, “Mixed lineage kinase inhibitors for HIV/AIDS therapies” (UNIVERSITY OF ROCHESTER, priority 2012, dated 2019)

Target: MLK3 (Homo sapiens (Human), UniProt Q16584)
Assay: Radiometric filter plate MLK3 assay
Type: biochemical
Details: 2 μM cold ATP (Km), 1 μM inactive MKK7b, twenty minute incubation; read-out: MK3 IC50
Description: After a twenty minute incubation, the reactions were washed through filter plates and read on a scintillation counter. Results are shown in Table 9 below, in which +++ indicates ≤0.1 μM, ++ indicates >0.1 μM and ≤1 μM, and + indicates >1 μM.

Chain of MLK3 (Q16584 whole entry): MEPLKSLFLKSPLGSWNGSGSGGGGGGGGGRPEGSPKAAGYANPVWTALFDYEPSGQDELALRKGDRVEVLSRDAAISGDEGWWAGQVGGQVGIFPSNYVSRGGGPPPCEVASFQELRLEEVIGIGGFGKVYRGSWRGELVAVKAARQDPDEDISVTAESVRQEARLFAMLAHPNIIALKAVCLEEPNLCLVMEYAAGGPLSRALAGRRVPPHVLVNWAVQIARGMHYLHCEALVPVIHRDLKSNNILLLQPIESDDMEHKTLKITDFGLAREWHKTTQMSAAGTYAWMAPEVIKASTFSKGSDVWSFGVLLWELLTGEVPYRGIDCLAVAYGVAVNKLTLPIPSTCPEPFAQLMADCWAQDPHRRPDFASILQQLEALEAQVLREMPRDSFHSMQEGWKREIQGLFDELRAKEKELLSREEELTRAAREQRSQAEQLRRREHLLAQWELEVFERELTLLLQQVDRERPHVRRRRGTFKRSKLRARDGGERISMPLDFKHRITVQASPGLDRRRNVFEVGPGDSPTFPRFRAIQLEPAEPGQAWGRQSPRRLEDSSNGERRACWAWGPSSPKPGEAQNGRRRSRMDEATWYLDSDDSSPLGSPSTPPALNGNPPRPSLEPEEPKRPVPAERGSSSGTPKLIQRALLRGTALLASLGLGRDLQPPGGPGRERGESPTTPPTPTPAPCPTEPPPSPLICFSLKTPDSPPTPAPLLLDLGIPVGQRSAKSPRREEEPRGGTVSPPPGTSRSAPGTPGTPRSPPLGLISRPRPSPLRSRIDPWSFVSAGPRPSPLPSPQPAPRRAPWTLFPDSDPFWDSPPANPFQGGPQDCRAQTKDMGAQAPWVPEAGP

Row | IC50 | Compound
1 | < 100 nM | CC(=O)Nc1ccc(-c2cnc3[nH]cc(-c4ccc5[nH]ccc5c4)c3c2)cc1 [Example 3, N-(4-(3-(1H-indol-5-yl)-1H-pyrrolo[2,3-b]pyridin-5-yl)phenyl)acetamide]
2 | < 100 nM | COc1cc(-c2cnc3[nH]cc(-c4ccc5[nH]ccc5c4)c3c2)ccc1N [Example 5, 4-(3-(1H-indol-5-yl)-1H-pyrrolo[2,3-b]pyridin-5-yl)-2-methoxyaniline]
3 | < 100 nM | CN1CCN(c2cc(-c3cnc4[nH]cc(-c5ccc6[nH]ccc6c5)c4c3)ccn2)CC1 [Example 7, 3-(1H-indol-5-yl)-5-(2-(4-methylpiperazin-1-yl)pyridin-4-yl)-1H-pyrrolo[2,3-b]pyridine]
4 | < 100 nM | Nc1ccc(-c2cnc3[nH]cc(-c4ccc5[nH]ccc5c4)c3c2)cc1 [Example 8, 4-(3-(1H-indol-5-yl)-1H-pyrrolo[2,3-b]pyridin-5-yl)aniline]
5 | < 100 nM | CS(=O)(=O)Nc1ccc(-c2cnc3[nH]cc(-c4ccc5[nH]ccc5c4)c3c2)cc1 [Example 11, N-(4-(3-(1H-indol-5-yl)-1H-pyrrolo[2,3-b]pyridin-5-yl)phenyl)methanesulfonamide]
6 | < 100 nM | COc1cc(-c2cnc3[nH]cc(-c4ccc(N)cc4)c3c2)cc(OC)c1OC [Example 15, 4-(5-(3,4,5-trimethoxyphenyl)-1H-pyrrolo[2,3-b]pyridin-3-yl)aniline]
7 | < 100 nM | COc1cc(-c2cnc3[nH]cc(-c4ccc(NC(C)=O)cc4)c3c2)cc(OC)c1OC [Example 16, N-(4-(5-(3,4,5-trimethoxyphenyl)-1H-pyrrolo[2,3-b]pyridin-3-yl)phenyl)acetamide]
8 | < 100 nM | COc1cc(-c2cnc3[nH]cc(-c4ccc(N(C)C)nc4)c3c2)cc(OC)c1OC [Example 19, N,N-dimethyl-5-(5-(3,4,5-trimethoxyphenyl)-1H-pyrrolo[2,3-b]pyridin-3-yl)pyridin-2-amine]
9 | > 1000 nM | Nc1ncc(-c2cnc3[nH]cc(-c4cnc(N)nc4)c3c2)cn1 [Example 20, 5,5′-(1H-pyrrolo[2,3-b]pyridine-3,5-diyl)dipyrimidin-2-amine]
10 | > 1000 nM | CN(C)c1ccc(-c2cnc3[nH]cc(-c4ccc(F)c(Cl)c4)c3c2)cn1 [Example 22, 5-(3-(3-chloro-4-fluorophenyl)-1H-pyrrolo[2,3-b]pyridin-5-yl)-N,N-dimethylpyridin-2-amine]
11 | < 100 nM | COc1cc(-c2cnc3[nH]cc(-c4ccc5c(ccn5C)c4)c3c2)cc(OC)c1OC [Example 24, 3-(1-methyl-1H-indol-5-yl)-5-(3,4,5-trimethoxyphenyl)-1H-pyrrolo[2,3-b]pyridine]
12 | < 100 nM | COc1cc(-c2cnc3[nH]cc(-c4ccc(C(N)=O)cc4)c3c2)cc(OC)c1OC [Example 25, 4-(5-(3,4,5-trimethoxyphenyl)-1H-pyrrolo[2,3-b]pyridin-3-yl)benzamide]
13 | < 100 nM | COc1ccc(-c2cnc3[nH]cc(-c4ccc(C(N)=O)cc4)c3c2)cc1OC [Example 26, 4-(5-(3,4-dimethoxyphenyl)-1H-pyrrolo[2,3-b]pyridin-3-yl)benzamide]
14 | > 1000 nM | Nc1ccc(-c2cnc3[nH]cc(-c4ccc(F)c(Cl)c4)c3c2)cn1 [Example 29, 5-(3-(3-chloro-4-fluorophenyl)-1H-pyrrolo[2,3-b]pyridin-5-yl)pyridin-2-amine]
15 | < 100 nM | CN(C)Cc1ccc(-c2cnc3[nH]cc(-c4ccc5[nH]ccc5c4)c3c2)cc1 [Example 33, 1-(4-(3-(1H-indol-5-yl)-1H-pyrrolo[2,3-b]pyridin-5-yl)phenyl)-N,N-dimethylmethanamine]
16 | < 100 nM | COc1cc(-c2cnc3[nH]cc(-c4ccc5[nH]ccc5c4)c3c2)ccc1OCCN1CCNCC1 [Example 34, 3-(1H-indol-5-yl)-5-(3-methoxy-4-(2-(piperazin-1-yl)ethoxy)phenyl)-1H-pyrrolo[2,3-b]pyridine]
17 | > 1000 nM | COc1cc(-c2cnc3[nH]cc(-c4ccc5[nH]ccc5c4)c3c2)ccc1OCCN(C)C [Example 35, 2-(4-(3-(1H-indol-5-yl)-1H-pyrrolo[2,3-b]pyridin-5-yl)-2-methoxyphenoxy)-N,N-dimethylethanamine]
18 | < 100 nM | COc1ccc(-c2cnc3[nH]cc(-c4ccc5[nH]ccc5c4)c3n2)cc1OC [Example 37, 2-(3,4-dimethoxyphenyl)-7-(1H-indol-5-yl)-5H-pyrrolo[3,2-b]pyrazine]
19 | < 100 nM | COc1cc(-c2cnc3[nH]cc(-c4ccc5[nH]ccc5c4)c3n2)ccc1N [Example 38, 4-(7-(1H-indol-5-yl)-5H-pyrrolo[3,2-b]pyrazin-2-yl)-2-methoxyaniline]
20 | < 100 nM | COc1cc(-c2cnc3[nH]cc(-c4ccc5[nH]ccc5c4)c3n2)ccc1OCCN1CCOCC1 [Example 39, 4-(2-(4-(7-(1H-indol-5-yl)-5H-pyrrolo[3,2-b]pyrazin-2-yl)-2-methoxyphenoxy)ethyl)morpholine]
21 | < 100 nM | COc1cc(-c2cnc3[nH]c(=O)n(-c4ccc5[nH]ccc5c4)c3n2)cc(OC)c1OC [Example 40, 1-(1H-indol-5-yl)-6-(3,4,5-trimethoxyphenyl)-1H-imidazo[4,5-b]pyrazin-2(3H)-one]
22 | > 1000 nM | Cn1ccc2cc(-n3c(=O)[nH]c4ncc(-c5ccc(O)cc5)nc43)ccc21 [Example 42, 6-(4-hydroxyphenyl)-1-(1-methyl-1H-indol-5-yl)-1H-imidazo[4,5-b]pyrazin-2(3H)-one]
23 | > 1000 nM | Cc1cc(C)cc(-c2cnc3[nH]c(=O)n(-c4ccc5c(ccn5C)c4)c3n2)c1 [Example 43, 6-(3,5-dimethylphenyl)-1-(1-methyl-1H-indol-5-yl)-1H-imidazo[4,5-b]pyrazin-2(3H)-one]
24 | > 1000 nM | O=c1[nH]c2ncc(-c3ccncc3)nc2n1-c1ccc2[nH]ccc2c1 [Example 44, 1-(1H-indol-5-yl)-6-(pyridin-4-yl)-1H-imidazo[4,5-b]pyrazin-2(3H)-one]
25 | > 1000 nM | Cc1cc(C)cc(-c2cnc3[nH]c(=O)n(-c4ccc5[nH]ccc5c4)c3n2)c1 [Example 46, 6-(3,5-dimethylphenyl)-1-(1H-indol-5-yl)-1H-imidazo[4,5-b]pyrazin-2(3H)-one]
26 | > 1000 nM | O=c1[nH]c2ncc(-c3cc(Cl)cc(Cl)c3)nc2n1-c1ccc2[nH]ccc2c1 [Example 48, 6-(3,5-dichlorophenyl)-1-(1H-indol-5-yl)-1H-imidazo[4,5-b]pyrazin-2(3H)-one]
27 | > 1000 nM | COc1ccc(-c2cnc3[nH]c(=O)n(-c4ccc5[nH]ccc5c4)c3n2)cc1F [Example 49, 6-(3-fluoro-4-methoxyphenyl)-1-(1H-indol-5-yl)-1H-imidazo[4,5-b]pyrazin-2(3H)-one]
28 | < 100 nM | COc1cc(-c2cnc3[nH]c(=O)n(-c4ccc5[nH]ccc5c4)c3n2)ccc1O [Example 55, 6-(4-hydroxy-3-methoxyphenyl)-1-(1H-indol-5-yl)-1H-imidazo[4,5-b]pyrazin-2(3H)-one]
29 | > 1000 nM | O=c1[nH]c2ncc(-c3ccc4cc[nH]c4c3)nc2n1-c1ccc2[nH]ccc2c1 [Example 56, 1-(1H-indol-5-yl)-6-(1H-indol-6-yl)-1H-imidazo[4,5-b]pyrazin-2(3H)-one]
30 | < 100 nM | COc1cc(-c2cnc3[nH]c(=O)n(-c4ccc5[nH]ccc5c4)c3n2)ccc1OCCN1CCOCC1 [Example 57, 1-(1H-indol-5-yl)-6-(3-methoxy-4-(2-morpholinoethoxy)phenyl)-1H-imidazo[4,5-b]pyrazin-2(3H)-one]
